PMC9848300, “Discovery of novel enasidenib analogues targeting inhibition of mutant isocitrate dehydrogenase 2 as antileukaemic agents” (Journal of Enzyme Inhibition and Medicinal Chemistry, 2023)
Like-named read-outs stand apart in the source and are kept apart here.

Columns and labels:
[1] = tested on: HCT-15; experiment: NCI 60 antitumor screening (single dose / five doses); format: cell-based; conditions: Homo sapiens
[2] = tested on: RPMI-8226; experiment: as above; format: cell-based; conditions: Homo sapiens
[3] = tested on: K-562; experiment: as above; format: cell-based; conditions: Homo sapiens
[4] = tested on: SR; experiment: as above; format: cell-based; conditions: Homo sapiens, read-out: Growth inhibition percentage (GI %)
[5] = tested on: HOP-92; experiment: as above; format: cell-based; conditions: Homo sapiens
[6] = tested on: SN 12C; experiment: as above; format: cell-based; conditions: Homo sapiens, SN12C, read-out: Growth inhibition percentage (GI %)
[7] = tested on: BT-549; experiment: as above; format: cell-based; conditions: Homo sapiens
[8] = tested on: T-47D; experiment: as above; format: cell-based; conditions: Homo sapiens, T47D, read-out: Growth inhibition percentage (GI %)
[9] = tested on: LOX IMVI; experiment: as above; format: cell-based; conditions: Homo sapiens, read-out: Growth inhibition percentage (GI %)
[10] = tested on: HCT-116; experiment: as above; format: cell-based; conditions: Homo sapiens
[11] = tested on: SNB-75; experiment: as above; format: cell-based; conditions: Homo sapiens
[12] = tested on: ACHN; experiment: as above; format: cell-based; conditions: Homo sapiens, read-out: Growth inhibition percentage (GI %)
[13] = tested on: 786-0; experiment: as above; format: cell-based; conditions: Homo sapiens
[14] = tested on: NCI/ADR-RES; experiment: as above; format: cell-based; conditions: Homo sapiens, read-out: Growth inhibition percentage (GI %)
[15] = tested on: MDA-MB-231/ATCC; experiment: as above; format: cell-based; conditions: Homo sapiens
[16] = tested on: UACC-62; experiment: as above; format: cell-based; conditions: Homo sapiens
[17] = tested on: UO-31; experiment: as above; format: cell-based; conditions: Homo sapiens
[18] = tested on: MALME-3M; experiment: as above; format: cell-based; conditions: Homo sapiens, read-out: Growth inhibition percentage (GI %)
[19] = tested on: CCRF-CEM; experiment: as above; format: cell-based; conditions: Homo sapiens, read-out: Growth inhibition percentage (GI %)
[20] = tested on: MOLT-4; experiment: as above; format: cell-based; conditions: Homo sapiens
[21] = tested on: 60 human subpanel cancer cell lines; experiment: NCI 60 antitumor screening, mean over the panel (single dose); format: cell-based; conditions: mean over 60 cancer cell lines, single dose 10 μM
Summary of the method: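 Percent growth inhibition, calculated as 100 minus percent growth (G%) of treated cells, following a single 10 μM exposure in the NCI 60 human cancer cell screen; triplicate runs.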

[22] = tested on: HL-60(TB); experiment: NCI 60 antitumor screening (single dose / five doses); format: cell-based; conditions: Homo sapiens
[23] = tested on: HT29; experiment: as above; format: cell-based, human; conditions: Homo sapiens
[24] = tested on: UACC-257; experiment: as above; format: cell-based; conditions: Homo sapiens
[25] = tested on: SF-539; experiment: as above; format: cell-based; conditions: Homo sapiens
[26] = tested on: MDA-MB-435; experiment: as above; format: cell-based; conditions: Homo sapiens
[27] = tested on: HS 578T; experiment: NCI 60 antitumor screening (single dose); format: cell-based; conditions: Homo sapiens, read-out: Growth inhibition percentage (GI %)
Summary of the method: (§1)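 NCI-60 protocol: single 10 μM dose against each cell line, run in triplicate. Percent growth (G%) of treated cells measured and growth inhibition reported as GI% = 100 − G%; panel mean also given.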

[28] = tested on: TK-10; experiment: NCI 60 antitumor screening (single dose); format: cell-based; conditions: Homo sapiens
Summary of the method: as §1

[29] = tested on: M14; experiment: NCI 60 antitumor screening (single dose); format: cell-based; conditions: Homo sapiens
Summary of the method: as §1

Work on `O=[N+]([O-])c1cccc(/C=N/Nc2nc(N/N=C/c3cccc([N+](=O)[O-])c3)nc(N3CCOCC3)n2)c1` [compound 6f, 2-(Morpholin-4-yl)-4,6-bis[(E)-2-[(3-nitrophenyl)methylidene]hydrazin-1-yl]-1,3,5-triazine] yielded an inhibition at 10 µM ([1]; HCT-15, read-out: Growth inhibition percentage (GI %)) of 53.2%, an inhibition at 10 µM ([2]; RPMI-8226, read-out: Growth inhibition percentage (GI %)) of 66.4% and an inhibition at 10 µM ([3]; K562, read-out: Growth inhibition percentage (GI %)) of 63.3%. The inhibition at 10 µM ([4]; SR) was 66%, the inhibition at 10 µM ([5]; HOP-92, read-out: Growth inhibition percentage (GI %)) was 14.2% and the inhibition at 10 µM [6] was 24.4%. For the same compound, the inhibition at 10 µM ([7]; BT-549, read-out: Growth inhibition percentage (GI %)) was 11.7%, the inhibition at 10 µM [8] was 30.9% and the inhibition at 10 µM ([9]; LOX IMVI) was 39.5%. The inhibition at 10 µM ([10]; HCT-116, read-out: Growth inhibition percentage (GI %)) was 35.6%, the inhibition at 10 µM ([11]; SNB-75, read-out: Growth inhibition percentage (GI %)) was 11.2% and the inhibition at 10 µM ([12]; ACHN) was 30.2%. For the same compound, the inhibition at 10 µM ([13]; 786-0, read-out: Growth inhibition percentage (GI %)) was 30.4%, the inhibition at 10 µM ([14]; NCI/ADR-RES) was 30.9% and the inhibition at 10 µM ([15]; MDA-MB-231, read-out: Growth inhibition percentage (GI %)) was 2.27%. The inhibition at 10 µM ([16]; UACC-62, read-out: Growth inhibition percentage (GI %)) was 21.1%, the inhibition at 10 µM ([17]; UO-31, read-out: Growth inhibition percentage (GI %)) was 50.7% and the inhibition at 10 µM ([18]; Malme-3M) was 6.12%. For the same compound, the inhibition at 10 µM ([19]; CCRF-CEM) was 58.4%, the inhibition at 10 µM ([20]; MOLT-4, read-out: Growth inhibition percentage (GI %)) was 52.7% and the “Mean GI %” value [21] was 23.39%. The inhibition at 10 µM ([22]; HL-60, read-out: Growth inhibition percentage (GI %)) was 47.8%, the inhibition at 10 µM ([23]; HT-29, read-out: Growth inhibition percentage (GI %)) was 42.2% and the inhibition at 10 µM ([24]; UACC-257, read-out: Growth inhibition percentage (GI %)) was 9.17%. The inhibition at 10 µM ([25]; SF-539, read-out: Growth inhibition percentage (GI %)) was 6.2%, the inhibition at 10 µM ([26]; MDA-MB-435, read-out: Growth inhibition percentage (GI %)) was 9.84% and the inhibition at 10 µM ([27]; Hs-578T) was 16.7%. For the same compound, the inhibition at 10 µM ([28]; TK-10, read-out: Growth inhibition percentage (GI %)) was -45.7% and the inhibition at 10 µM ([29]; M14, read-out: Growth inhibition percentage (GI %)) was 14%.

Compound `CN(C)c1ccc(/C=N/Nc2nc(N/N=C/c3ccc(N(C)C)cc3)nc(N3CCOCC3)n2)cc1` [compound 6g, 4-[(1e)-(2-{4-[(E)-2-{[4-(dimethylamino)phenyl]methylidene}hydrazin-1-yl]-6-(morpholin-4-yl)-1,3,5-triazin-2-yl}hydrazin-1-ylidene)methyl]-N,N-dimethylaniline] has an inhibition at 10 µM ([1]; HCT-15 (colon cancer), single dose 10 μM, read-out: Growth inhibition percentage (GI %)) of 77.6%, an inhibition at 10 µM ([2]; RPMI-8226 (leukaemia), single dose 10 μM, read-out: Growth inhibition percentage (GI %)) of 65% and an inhibition at 10 µM ([3]; K562, K-562 (leukaemia), single dose 10 μM, read-out: Growth inhibition percentage (GI %)) of 93.7%. The inhibition at 10 µM ([4]; SR (leukaemia), single dose 10 μM) was 113%, the inhibition at 10 µM ([5]; HOP-92 (non-small cell lung cancer), single dose 10 μM, read-out: Growth inhibition percentage (GI %)) was -8.78% and the inhibition at 10 µM ([6]; SN 12C (renal cancer), single dose 10 μM) was 10.8%. The inhibition at 10 µM ([7]; BT-549 (breast cancer), single dose 10 μM, read-out: Growth inhibition percentage (GI %)) was -5.53%, the inhibition at 10 µM ([8]; T-47D (breast cancer), single dose 10 μM) was 5.31% and the inhibition at 10 µM ([9]; LOX IMVI (melanoma), single dose 10 μM) was 12.3%. The inhibition at 10 µM ([10]; HCT-116 (colon cancer), single dose 10 μM, read-out: Growth inhibition percentage (GI %)) was 64.3%, the inhibition at 10 µM ([11]; SNB-75 (CNS cancer), single dose 10 μM, read-out: Growth inhibition percentage (GI %)) was 12.6% and the inhibition at 10 µM ([12]; ACHN (renal cancer), single dose 10 μM) was -4.23%. The inhibition at 10 µM ([13]; 786-0, 786-0 (renal cancer), single dose 10 μM, read-out: Growth inhibition percentage (GI %)) was 15.4%, the inhibition at 10 µM ([14]; NCI/ADR-RES (ovarian cancer), single dose 10 μM) was 0.17% and the inhibition at 10 µM ([15]; MDA-MB-231/ATCC (breast cancer), single dose 10 μM, read-out: Growth inhibition percentage (GI %)) was 0.47%. The inhibition at 10 µM ([16]; UACC-62 (melanoma), single dose 10 μM, read-out: Growth inhibition percentage (GI %)) was 2.25%, the inhibition at 10 µM ([17]; UO-31 (renal cancer), single dose 10 μM, read-out: Growth inhibition percentage (GI %)) was 9.35% and the inhibition at 10 µM ([18]; MALME-3M (melanoma), single dose 10 μM) was -14.2%. The inhibition at 10 µM ([19]; CCRF-CEM (leukaemia), single dose 10 μM) was 86.7%, the inhibition at 10 µM ([20]; MOLT-4 (leukaemia), single dose 10 μM, read-out: Growth inhibition percentage (GI %)) was 3.27% and the “Mean GI %” value [21] was 14.28%. For the same compound, the inhibition at 10 µM ([22]; HL-60(TB) (leukaemia), single dose 10 μM, read-out: Growth inhibition percentage (GI %)) was 3.26%, the inhibition at 10 µM ([23]; HT-29, HT29 (colon cancer), single dose 10 μM, read-out: Growth inhibition percentage (GI %)) was -1.91% and the inhibition at 10 µM ([24]; UACC-257 (melanoma), single dose 10 μM, read-out: Growth inhibition percentage (GI %)) was -2.69%. For the same compound, the inhibition at 10 µM ([25]; SF-539 (CNS cancer), single dose 10 μM, read-out: Growth inhibition percentage (GI %)) was 3.33%, the inhibition at 10 µM ([26]; MDA-MB-435 (melanoma), single dose 10 μM, read-out: Growth inhibition percentage (GI %)) was -4.43% and the inhibition at 10 µM ([27]; HS 578T (breast cancer), single dose 10 μM) was 2.43%. It also gave an inhibition at 10 µM ([28]; TK-10 (renal cancer), single dose 10 μM, read-out: Growth inhibition percentage (GI %)) of -10.2% and an inhibition at 10 µM ([29]; M14 (melanoma), single dose 10 μM, read-out: Growth inhibition percentage (GI %)) of -2.62%.
